{
  "source": "ChEMBL document CHEMBL5505979",
  "about": "“Novel aminothiazoximone-corbelled ethoxycarbonylpyrimidones with antibiofilm activity to conquer Gram-negative bacteria through potential multitargeting effects” (Eur J Med Chem, 2024)",
  "key": {"Acinetobacter baumannii [1]": {"tested_on": "Acinetobacter baumannii", "assay": "Reduction in metabolic activity of Acinetobacter baumannii at 2 times of MIC concentration relative to control", "type": "functional", "set-up": "scale not given: the % may be the effect or the level left"}, "Acinetobacter baumannii [2]": {"tested_on": "Acinetobacter baumannii", "assay": "Anti-bacterial activity against Acinetobacter baumannii assessed as growth inhibition by measuring optical density measured at 1 time of MIC in presence of 1/8 times of MIC of norfloxacin by Checkerboard assay (reference value: 0.157)", "type": "functional"}, "Escherichia coli [3]": {"tested_on": "Escherichia coli", "assay": "Anti-bacterial activity against Escherichia coli ATCC 25922 assessed as inhibition of bacterial growth", "type": "functional"}, "Acinetobacter baumannii [4]": {"tested_on": "Acinetobacter baumannii", "assay": "Anti-bacterial activity against Acinetobacter baumannii assessed as growth inhibition by measuring optical density measured at 1/2 time of MIC in presence of 1/8 times of MIC of norfloxacin by Checkerboard assay (reference value: 0.152)", "type": "functional"}, "Acinetobacter baumannii [5]": {"tested_on": "Acinetobacter baumannii", "assay": "Anti-bacterial activity against Acinetobacter baumannii assessed as growth inhibition by measuring optical density measured at 1/4 time of MIC in presence of 1/4 times of MIC of norfloxacin by Checkerboard assay (reference value: 0.152)", "type": "functional"}, "Candida albicans": {"tested_on": "Candida albicans", "assay": "Anti-fungal activity against Candida albicans 90023 assessed as inhibition of fungal growth", "type": "functional"}, "Escherichia coli [6]": {"tested_on": "Escherichia coli", "assay": "Anti-bacterial activity against Escherichia coli ATCC 25922 assessed as growth inhibition by measuring optical density measured at 1/4 time of MIC in presence of 1/4 times of MIC of norfloxacin by Checkerboard assay (reference value: 0.128)", "type": "functional"}, "Cell membrane [7]": {"tested_on": "Cell membrane", "assay": "Induction of membrane damage in Acinetobacter baumannii assessed as increase in fluorescence intensity at 1 to 4 times of MIC concentration measured after 90 mins by DiSC3 fluorescent probe assay", "type": "cell membranes"}, "Acinetobacter baumannii [8]": {"tested_on": "Acinetobacter baumannii", "assay": "Anti-bacterial activity against Acinetobacter baumannii assessed as growth inhibition by measuring optical density measured at 1/2 time of MIC in presence of 1/4 times of MIC of norfloxacin by Checkerboard assay (reference value: 0.152)", "type": "functional"}, "Escherichia coli [9]": {"tested_on": "Escherichia coli", "assay": "Anti-bacterial activity against Escherichia coli ATCC 25922 assessed as growth inhibition by measuring optical density measured at 2 time of MIC in presence of 1/4 times of MIC of norfloxacin by Checkerboard assay (reference value: 0.128)", "type": "functional"}, "Acinetobacter baumannii [10]": {"tested_on": "Acinetobacter baumannii", "assay": "Antibiofilm activity against Acinetobacter baumannii assessed as reduction of self-aggregation", "type": "functional, organism-based"}, "Escherichia coli [11]": {"tested_on": "Escherichia coli", "assay": "Anti-bacterial activity against Escherichia coli ATCC 25922 assessed as growth inhibition by measuring optical density measured at 1 time of MIC in presence of 1/4 times of MIC of norfloxacin by Checkerboard assay (reference value: 0.125)", "type": "functional"}, "Acinetobacter baumannii [12]": {"tested_on": "Acinetobacter baumannii", "assay": "Induction of ROS accumulation in Acinetobacter baumannii assessed as decrease in GSH activity by measuring reduced GSH to convert to oxidized GSSG at 1/4 to 2 times of MIC by Ellmans method", "type": "functional, organism-based"}, "Escherichia coli [13]": {"tested_on": "Escherichia coli", "assay": "Antibiofilm activity against Escherichia coli ATCC 25922 assessed as inhibition rate of bio-film formation at 0.5 times of MIC concentration by Crystal violet assay relative to control", "type": "functional"}, "Acinetobacter baumannii [14]": {"tested_on": "Acinetobacter baumannii", "assay": "Anti-bacterial activity against Acinetobacter baumannii assessed as growth inhibition by measuring optical density measured at 1/2 time of MIC in presence of 1/2 times of MIC of norfloxacin by Checkerboard assay (reference value: 0.152)", "type": "functional"}, "Cell membrane [15]": {"tested_on": "Cell membrane", "assay": "Induction of physical destruction of cell membrane in Acinetobacter baumannii assessed as leakage of nucleic acid by measuring absorbance of 260 nm at 1/4 to 8 times of MIC concentration", "type": "cell membranes"}, "Acinetobacter baumannii [16]": {"tested_on": "Acinetobacter baumannii", "assay": "Anti-bacterial activity against Acinetobacter baumannii assessed as growth inhibition by measuring optical density measured at 4 time of MIC in presence of 2 times of MIC of norfloxacin by Checkerboard assay (reference value: 0.152)", "type": "functional"}, "Escherichia coli [17]": {"tested_on": "Escherichia coli", "assay": "Anti-bacterial activity against Escherichia coli ATCC 25922 assessed as growth inhibition by measuring optical density measured at 1/2 time of MIC in presence of 1 times of MIC of norfloxacin by Checkerboard assay (reference value: 0.124)", "type": "functional"}, "Acinetobacter baumannii [18]": {"tested_on": "Acinetobacter baumannii", "assay": "Reduction of biofilm virulent factors in Acinetobacter baumannii assessed as decrease in extracellular polymeric substances (EPS) by measuring optical density at 490 nm at 2 times of MIC concentration by congo red binding assay (reference value: 0.188 to 0.192)", "type": "functional"}, "Escherichia coli [19]": {"tested_on": "Escherichia coli", "assay": "Anti-bacterial activity against Escherichia coli ATCC 25922 assessed as growth inhibition by measuring optical density measured at 1 time of MIC in presence of 1/8 times of MIC of norfloxacin by Checkerboard assay (reference value: 0.125)", "type": "functional"}, "[20]": {"assay": "Hemolysis in human RBC assessed as hemolysis rate at 128 times of MIC concentration for 6 hrs", "type": "toxicity, cell-based, Erythrocyte", "conditions": "red blood cells, read-out: Activity"}, "Acinetobacter baumannii [21]": {"tested_on": "Acinetobacter baumannii", "assay": "Anti-bacterial activity against Acinetobacter baumannii assessed as growth inhibition by measuring optical density measured at 1 time of MIC in presence of 1/2 times of MIC of norfloxacin by Checkerboard assay (reference value: 0.157)", "type": "functional"}, "Acinetobacter baumannii [22]": {"tested_on": "Acinetobacter baumannii", "assay": "Anti-bacterial activity against Acinetobacter baumannii assessed as inhibition of bacterial growth measured after 20 passages at sub-MIC concentration by multiple resistance study", "type": "functional, organism-based"}, "Cell membrane [23]": {"tested_on": "Cell membrane", "assay": "Induction of membrane damage in Escherichia coli ATCC 25922 assessed as increase in fluorescence intensity at 1 to 4 times of MIC concentration measured after 90 mins by DiSC3 fluorescent probe assay", "type": "cell membranes"}, "Acinetobacter baumannii [24]": {"tested_on": "Acinetobacter baumannii", "assay": "Antibiofilm activity against Acinetobacter baumannii assessed as decrease in biofilm formation at MIC concentration relative to control", "type": "functional", "set-up": "scale not given: the % may be the effect or the level left"}, "Acinetobacter baumannii [25]": {"tested_on": "Acinetobacter baumannii", "assay": "Reduction of biofilm virulent factors in Acinetobacter baumannii assessed as decrease in extracellular polymeric substances (EPS) by measuring optical density at 490 nm at 1 times of MIC concentration by congo red binding assay (reference value: 0.188 to 0.192)", "type": "functional"}, "Escherichia coli [26]": {"tested_on": "Escherichia coli", "assay": "Anti-bacterial activity against Escherichia coli ATCC 25922 assessed as inhibition of bacterial growth measured after 20 passages at sub-MIC concentration by multiple resistance study", "type": "functional, organism-based"}, "Acinetobacter baumannii [27]": {"tested_on": "Acinetobacter baumannii", "assay": "Induction of intracellular ROS accumulation in Acinetobacter baumannii assessed as larger green fluorescence densities at 1/4 to 2 times of MIC by microscopic imaging assay", "type": "functional, organism-based"}, "Escherichia coli [28]": {"tested_on": "Escherichia coli", "assay": "Anti-bacterial activity against Escherichia coli ATCC 25922 assessed as growth inhibition by measuring optical density measured at 2 time of MIC in presence of 2 times of MIC of norfloxacin by Checkerboard assay (reference value: 0.128)", "type": "functional"}, "Acinetobacter baumannii [29]": {"tested_on": "Acinetobacter baumannii", "assay": "Antibiofilm activity against Acinetobacter baumannii assessed as inhibition rate of bio-film formation at 0.5 times of MIC concentration by Crystal violet assay relative to control", "type": "functional"}, "Acinetobacter baumannii [30]": {"tested_on": "Acinetobacter baumannii", "assay": "Anti-bacterial activity against Acinetobacter baumannii assessed as growth inhibition by measuring optical density measured at 4 time of MIC in presence of 1/4 times of MIC of norfloxacin by Checkerboard assay (reference value: 0.152)", "type": "functional"}, "Staphylococcus aureus [31]": {"tested_on": "Staphylococcus aureus", "assay": "Anti-bacterial activity against Staphylococcus aureus ATCC 29213 assessed as inhibition of bacterial growth", "type": "functional", "conditions": "Staphylococcus aureus, ATCC 29213; read-out: MIC"}, "Escherichia coli [32]": {"tested_on": "Escherichia coli", "assay": "Anti-bacterial activity against Escherichia coli ATCC 25922 assessed as inhibition of bacterial growth measured upto 9 hrs", "type": "functional, organism-based"}, "Staphylococcus aureus [33]": {"tested_on": "Staphylococcus aureus", "assay": "Anti-bacterial activity against Staphylococcus aureus ATCC 6538 assessed as inhibition of bacterial growth", "type": "functional"}},
  "note": "Activity calls are given as the source filed them. No cut-off for these calls is given here.",
  "data": [
    {"smiles": "CCCCc1nc(Cl)c(C2NC(=O)NC(CN3CCN(C(=O)/C(=N/OC)c4csc(N)n4)CC3)=C2C(=O)OCC)[nH]1", "note": "(centres undefined)", "values": [
      {"measurement": "Activity", "setting": "Acinetobacter baumannii [1]", "result": 66.3, "unit": "%"},
      {"measurement": "OD", "setting": "Acinetobacter baumannii [2]", "result": 0.116},
      {"measurement": "MIC", "setting": "Escherichia coli [3]", "result": 7, "unit": "µM"},
      {"measurement": "OD", "setting": "Acinetobacter baumannii [4]", "result": 0.117},
      {"measurement": "OD", "setting": "Acinetobacter baumannii [5]", "result": 0.129},
      {"measurement": "MIC", "setting": "Candida albicans", "result": 53, "unit": "µM"},
      {"measurement": "OD", "setting": "Escherichia coli [6]", "result": 0.127},
      {"measurement": "Activity", "setting": "Cell membrane [7]", "result": "inactive"},
      {"measurement": "OD", "setting": "Acinetobacter baumannii [8]", "result": 0.119},
      {"measurement": "OD", "setting": "Escherichia coli [9]", "result": 0.102},
      {"measurement": "Activity", "setting": "Acinetobacter baumannii [10]", "result": "Dose-Dependent Effect"},
      {"measurement": "OD", "setting": "Escherichia coli [11]", "result": 0.111},
      {"measurement": "Activity", "setting": "Acinetobacter baumannii [12]", "result": "Active"},
      {"measurement": "inhibition (INH)", "setting": "Escherichia coli [13]", "result": 28.3, "unit": "%"},
      {"measurement": "OD", "setting": "Acinetobacter baumannii [14]", "result": 0.107},
      {"measurement": "Activity", "setting": "Cell membrane [15]", "result": "Active"},
      {"measurement": "OD", "setting": "Acinetobacter baumannii [16]", "result": 0.051},
      {"measurement": "OD", "setting": "Escherichia coli [17]", "result": 0.082},
      {"measurement": "OD", "setting": "Acinetobacter baumannii [18]", "result": 0.13},
      {"measurement": "OD", "setting": "Escherichia coli [19]", "result": 0.121},
      {"measurement": "hemolysis at 6 h, 128 x MIC", "setting": "[20]", "result": 0.8, "unit": "%"},
      {"measurement": "OD", "setting": "Acinetobacter baumannii [21]", "result": 0.106},
      {"measurement": "Activity", "setting": "Acinetobacter baumannii [22]", "result": "Active"},
      {"measurement": "Activity", "setting": "Cell membrane [23]", "result": "inactive"},
      {"measurement": "Activity", "setting": "Acinetobacter baumannii [24]", "result": 18.6, "unit": "%"},
      {"measurement": "OD", "setting": "Acinetobacter baumannii [25]", "result": 0.163},
      {"measurement": "Activity", "setting": "Escherichia coli [26]", "result": "Active"},
      {"measurement": "Activity", "setting": "Acinetobacter baumannii [27]", "result": "Active"},
      {"measurement": "OD", "setting": "Escherichia coli [28]", "result": 0.052},
      {"measurement": "inhibition (INH)", "setting": "Acinetobacter baumannii [29]", "result": 23.5, "unit": "%"},
      {"measurement": "OD", "setting": "Acinetobacter baumannii [30]", "result": 0.051},
      {"measurement": "MIC", "setting": "Staphylococcus aureus [31]", "result": 26, "unit": "µM"},
      {"measurement": "Activity", "setting": "Escherichia coli [32]", "result": "Dose-Dependent Effect"},
      {"measurement": "MIC", "setting": "Staphylococcus aureus [33]", "result": 7, "unit": "µM"}
    ]}
  ]
}
